Like-named read-outs stand apart in the source and are kept apart here.
Columns and labels:
[1] = target: T1, HisAviTEV-hSTING (139-342) human wild-type protein (Homo sapiens, UniProt Q86WV6, H232R); test: Protein thermal shift assay, STING C-terminal binding domain protein; details: test compound final concentration 0.5 mM
T1 construct: made in house; host or cells: E. coli Rosetta 2 (DE3), co-expressed with BirA (1-321)

[2] = target: T2, His-Avi-TEV-mSTING (138-341) mouse wild-type protein (Mus musculus, UniProt Q3TBT3); test: as above; details: test compound final concentration 0.5 mM
T2 construct: made in house; host or cells: E. coli Rosetta 2 (DE3), co-expressed with BirA (1-321)
Protocol: Each of these expression strains was added to a TB medium containing 100 μg/mL ampicillin, 50 μg/mL streptomycin, and 30 μg/mL kanamycin, cultured at 37° C., then exposed to 100 μM IPTG for inducible expression, and further cultured at 16° C.
The culture solution was centrifuged, and the resulting bacterial cells were suspended in 50 mM HEPES pH 8.0, 500 mM NaCl, 20 mM imidazole, 1 mM DTT, 5% (w/v) glycerol, Complete EDTA free, and then subjected to freeze-thawing. After addition of Lysozyme and DNase I, proteins were extracted by ultrasonic disintegration, and centrifugation was performed and the resulting supernatant was collected. The supernatant obtained was purified by using an AKTA express chromatography system (GE Healthcare, IL, US) with a HisTrap FF column (GE Healthcare), and eluted with buffer (20 mM HEPES pH 7.5, 120 mM NaCl, 20% Glycerol, 0.8 mM DTT) through a Superdex 200 16/60 column (GE Healthcare). […] The protein concentrations were measured by using a NanoDrop2000 (Thermo Fisher Scientific, MA, US), and the proteins were cryopreserved at −80° C. until use.
The binding ability of each compound to the STING C-terminal binding domain proteins was evaluated by protein thermal shift assay, which uses the elevation of thermal denaturation temperature of protein as an index.
Specifically, 3 μL of a test compound (final concentration: 0.5 mM), 3 μL of SYPRO Orange Protein Gel Stain (Thermo Fisher Scientific) (final concentration: 20-fold), and 6 μL of a STING protein were mixed with use of assay buffer (20 mM Tris-HCl pH 7.5, 120 mM NaCl) in a 384-well real-time PCR plate, and mixed together with a plate shaker. With a real-time PCR system (Thermo Fisher Scientific), the temperature was increased from 25° C. to 95° C. at a rate of 0.03° C./sec, and the thermal denaturation temperature of the protein was measured by using fluorescence emitted from SYPRO Orange as an index. From the measurement acquired, Tm (the midpoint of the unfolding transition) (° C.) was determined as a temperature at which the increase rate of fluorescence intensity was maximized by using the analysis software Protein Thermal Shift software (Thermo Fisher Scientific). The Tm value for a well with no compound was subtracted from the Tm value for each test compound to calculate the Tm shift caused by the compound as ΔTm (° C.).

Human STING = Human STING (Homo sapiens, UniProt Q86WV6, G230A/H232R/R293Q/R71H); test: Reporter gene assay, human STING agonist activity, THP1-Dual cells (HAQ-mutated), IRF pathway; details: 24 hours, 100% = maximum count with ML-RR-CDA·2Na+
Protocol: Human STING agonist activity was evaluated by using THP1-Dual™ cells (HAQ-mutated) (InvivoGen, CA, US), with which the activation of the pathway of interferon regulatory factor-3 (IRF3), which is present in the downstream of the STING pathway, can be confirmed.
Assay was performed as follows. First, a test compound diluted with PBS was aliquoted into a transparent 96-well plate (Corning Incorporated, NY, US) at 20 μL/well. Subsequently, reporter cells suspended in assay buffer (an RPMI1640 medium or DMEM medium containing 10% bovine serum albumin) were added at 180 μL/well (1×10^5 cells/well) to initiate stimulation. After the cells were cultured in an environment at 37° C. and 5% CO2 for 24 hours, the resultant was centrifuged to collect the supernatant. To a white 384-well plate, 6 μL of the supernatant collected was added, and 15 μL of QUANTI-Luc (InvivoGen) solution was added thereto. After the resultant was well mixed together, emission was measured by using a plate reader (PerkinElmer, Inc., MA, US).

[3] = target: T3, HisAviTEV-hSTING (139-342) human REF-mutated protein (Homo sapiens, UniProt Q86WV6); test: Protein thermal shift assay, STING C-terminal binding domain protein; details: test compound final concentration 0.5 mM
T3 construct: made in house; host or cells: E. coli Rosetta 2 (DE3), co-expressed with BirA (1-321)

[4] = target: T4, HisAviTEV-hSTING (139-342) human AQ-mutated protein (Homo sapiens, UniProt Q86WV6, G230A/H232R/R293Q); test: as above; details: test compound final concentration 0.5 mM
T4 construct: made in house; host or cells: E. coli Rosetta 2 (DE3), co-expressed with BirA (1-321)

[5] = THP1-Dual cells IRF EC50, THP1-Dual cells (HAQ-mutated)

T2 sequence (Q3TBT3 with tags, fused parts or gaps limits assumed): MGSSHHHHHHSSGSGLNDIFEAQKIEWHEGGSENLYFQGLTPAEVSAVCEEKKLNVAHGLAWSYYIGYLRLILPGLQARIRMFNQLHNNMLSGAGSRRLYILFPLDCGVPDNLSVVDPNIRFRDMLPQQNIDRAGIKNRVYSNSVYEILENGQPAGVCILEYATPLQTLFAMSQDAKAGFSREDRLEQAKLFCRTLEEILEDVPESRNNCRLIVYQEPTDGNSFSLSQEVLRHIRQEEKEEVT
T1 sequence (Q86WV6 with tags, fused parts or gaps H232R): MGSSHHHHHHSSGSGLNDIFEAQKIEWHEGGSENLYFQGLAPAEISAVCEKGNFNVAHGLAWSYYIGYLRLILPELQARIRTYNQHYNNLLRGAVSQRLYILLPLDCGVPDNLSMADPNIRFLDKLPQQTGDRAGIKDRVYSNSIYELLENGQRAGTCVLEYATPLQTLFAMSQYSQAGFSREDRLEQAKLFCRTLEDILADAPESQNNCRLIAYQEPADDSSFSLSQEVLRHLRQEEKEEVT
T4 sequence (Q86WV6 with tags, fused parts or gaps G230A/H232R/R293Q): as the sequence (Q86WV6 with tags, fused parts or gaps H232R) above, with G131A, R194Q counted along it
T3 sequence (Q86WV6 with tags, fused parts or gaps, change not shown): as the sequence (Q86WV6 with tags, fused parts or gaps H232R) above, with R133H counted along it
Human STING, sequence (Q86WV6 whole entry R71H/G230A/H232R/R293Q, the tested form may be a part): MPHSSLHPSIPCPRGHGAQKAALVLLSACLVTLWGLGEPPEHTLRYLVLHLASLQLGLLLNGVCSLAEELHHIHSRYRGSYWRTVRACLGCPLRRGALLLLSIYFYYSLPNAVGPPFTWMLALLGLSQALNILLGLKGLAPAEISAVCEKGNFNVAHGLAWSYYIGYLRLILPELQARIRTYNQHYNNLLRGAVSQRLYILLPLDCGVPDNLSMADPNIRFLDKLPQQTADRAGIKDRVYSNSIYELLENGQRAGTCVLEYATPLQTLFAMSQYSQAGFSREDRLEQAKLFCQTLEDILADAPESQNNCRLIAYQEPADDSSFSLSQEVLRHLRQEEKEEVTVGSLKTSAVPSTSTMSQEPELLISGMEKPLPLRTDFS

Row | SMILES | ΔTm at 500 µM [1] | ΔTm at 500 µM [2] | EC50 (Human STING; [5]) | ΔTm at 500 µM [3] | ΔTm at 500 µM [4] | ΔTm Hu-WT [1] | ΔTm Ms-WT [2] | EC50 (Human STING; read-out: THP1-Dual cells IRF EC50, THP1-Dual cells (HAQ-mutated)) | ΔTm Hu-REF [3] | ΔTm Hu-AQ [4]
1 | O=C(CO)NCCn1cnc2c(ncn2[C@@H]2O[C@@H]3COP(=O)(S)O[C@H]4[C@@H](F)[C@H](n5cc6c7c(ncnc75)NCCC6)O[C@@H]4COP(=O)(S)O[C@@H]2[C@@H]3O)c1=O (single isomer, unassigned) [36b] | – | – | – | – | – | 10.1 °C | 19.3 °C | 2000 nM | 5.5 °C | 11.8 °C
2 | O=C(CO)NCCn1cnc2c(ncn2[C@@H]2O[C@@H]3COP(=O)(S)O[C@H]4[C@@H](O)[C@H](n5cc6c7c(ncnc75)NCCC6)O[C@@H]4COP(=O)(S)O[C@@H]2[C@@H]3O)c1=O (single isomer, unassigned) [7b] | – | – | 6100 nM | – | – | 7.2 °C | 13.2 °C | – | 2.8 °C | 9.5 °C
3 | O=P1(S)OC[C@H]2O[C@@H](n3cc4c5c(ncnc53)NCCC4)[C@H](O)[C@@H]2OP(=O)(S)OC[C@H]2O[C@@H](n3cnc4c(CO)ncnc43)[C@H](O1)[C@@H]2O (single isomer, unassigned) [17a] | 7.3 °C | 12.6 °C | 4400 nM | 2.7 °C | 10.7 °C | – | – | – | – | –
4 | O=P1(S)OC[C@H]2O[C@@H](n3cc4c5c(ncnc53)NCCC4)[C@H](O)[C@@H]2OP(=O)(S)OC[C@H]2O[C@@H](n3cnc4c(CO)ncnc43)[C@H](O1)[C@@H]2O (single isomer, unassigned) [17b] | – | – | 1000 nM | – | – | 7.4 °C | 12.6 °C | – | 2.2 °C | 10.4 °C
5 | NCCNc1nc(N)c2ncn([C@@H]3O[C@@H]4COP(=O)(S)O[C@H]5[C@@H](F)[C@H](n6cc7c8c(ncnc86)NCCC7)O[C@@H]5COP(=O)(S)O[C@@H]3[C@@H]4F)c2n1 (single isomer, unassigned) [45b] | – | – | 3100 nM | – | – | 7.5 °C | 12.1 °C | – | 3.1 °C | 9.1 °C
6 | O=c1c2ncn([C@@H]3O[C@@H]4COP(=O)(O)O[C@H]5[C@@H](F)[C@H](n6cc7c8c(ncnc86)NCCC7)O[C@@H]5COP(=O)(S)O[C@@H]3[C@@H]4O)c2ncn1CCO (single isomer, unassigned) [52a] | 10.9 °C | 14.3 °C | 310 nM | 5.6 °C | 13.5 °C | – | – | – | – | –
7 | O=c1c2ncn([C@@H]3O[C@@H]4COP(=O)(S)O[C@H]5[C@@H](F)[C@H](n6cc7c8c(ncnc86)SCCC7)O[C@@H]5COP(=O)(S)O[C@@H]3[C@@H]4O)c2ncn1CCO (single isomer, unassigned) [48a] | 15.9 °C | 16 °C | 35 nM | 9.3 °C | 22.2 °C | – | – | – | – | –
8 | NCCNc1nc(N)c2ncn([C@@H]3O[C@@H]4COP(=O)(S)O[C@H]5[C@@H](O)[C@H](n6cc7c8c(ncnc86)NCCC7)O[C@@H]5COP(=O)(S)O[C@@H]3[C@@H]4F)c2n1 (single isomer, unassigned) [42b] | – | – | 4700 nM | – | – | 5.3 °C | 10.6 °C | – | 1.4 °C | 7.4 °C
9 | O=c1c2ncn([C@@H]3O[C@@H]4COP(=O)(S)O[C@H]5[C@@H](O)[C@H](n6cc7c8c(ncnc86)NCCC7)O[C@@H]5COP(=O)(S)O[C@@H]3[C@@H]4F)c2ncn1CCO (single isomer, unassigned) [39a] | 10.4 °C | 15 °C | 190 nM | 5.7 °C | 12.9 °C | – | – | – | – | –
10 | NCCn1cnc2c(ncn2[C@@H]2O[C@@H]3COP(=O)(S)O[C@H]4[C@@H](F)[C@H](n5cc6c7c(ncnc75)NCCC6)O[C@@H]4COP(=O)(S)O[C@@H]2[C@@H]3O)c1=O (single isomer, unassigned) [35b] | – | – | 3400 nM | – | – | 10.3 °C | 14.2 °C | – | 5.8 °C | 12.6 °C
11 | Nc1ncnc2c1ncn2[C@@H]1O[C@@H]2COP(=O)(S)O[C@H]3[C@@H](O)[C@H](n4cc5c6c(ncnc64)NCCC5)O[C@@H]3COP(=O)(S)O[C@@H]1[C@@H]2O (single isomer, unassigned) [1a] | 8.4 °C | 14.3 °C | 5900 nM | 3.4 °C | 12 °C | – | – | – | – | –

More lines, in order of falling EC50 (Human STING; [5]), values ahead:

Row | ΔTm at 500 µM [1] | ΔTm at 500 µM [2] | EC50 (Human STING; [5]) | ΔTm at 500 µM [3] | ΔTm at 500 µM [4] | ΔTm Hu-WT [1] | ΔTm Ms-WT [2] | EC50 (Human STING; read-out: THP1-Dual cells IRF EC50, THP1-Dual cells (HAQ-mutated)) | ΔTm Hu-REF [3] | ΔTm Hu-AQ [4] | SMILES
12 | 9.6 °C | 14.3 °C | 6000 nM | 5.4 °C | 11.6 °C | – | – | – | – | – | O=c1c2ncn([C@@H]3O[C@@H]4COP(=O)(S)O[C@H]5[C@@H](F)[C@H](n6cc7c8c(ncnc86)NCCC7)O[C@@H]5COP(=O)(O)O[C@@H]3[C@@H]4O)c2ncn1CCO (stereo partly drawn) [53a, Disodium (5R,7R,8R,12aR,14R,15R,15aR,16R)-15-fluoro-16-hydroxy-7-[1-(2-hydroxyethyl)-6-oxo-1,6-dihydro-9H-purin-9-yl]-2,10-dioxo-2-sulfide-14-(6,7,8,9-tetrahydro-2H-2,3,5,6-tetraazabenzo[cd]azulen-2-yl)octahydro-2H,10H,12H-5,8-methano-2λ^5,10λ^5-furo[3,2-1][1,3,6,9,11,2,10]pentaoxadiphosphacyclotetradecin-10-olate]
13 | 7.6 °C | 11.5 °C | 3100 nM | 2.8 °C | 10.8 °C | – | – | – | – | – | NCCNc1nc(N)c2ncn([C@@H]3O[C@@H]4COP(=O)(S)O[C@H]5[C@@H](O)[C@H](n6cc7c8c(ncnc86)NCCC7)O[C@@H]5COP(=O)(S)O[C@@H]3[C@@H]4O)c2n1 (single isomer, unassigned) [8a]
14 | 11.5 °C | 17.5 °C | 2100 nM | 5.2 °C | 17 °C | – | – | – | – | – | Nc1nc2c(ncn2[C@@H]2O[C@@H]3COP(=O)(S)O[C@H]4[C@@H](O)[C@H](n5cc6c7c(ncnc75)NCCC6)O[C@@H]4COP(=O)(S)O[C@@H]2[C@@H]3O)c(=O)[nH]1 (single isomer, unassigned) [4a]
15 | 11 °C | 13.5 °C | 2000 nM | 6.6 °C | 13.1 °C | – | – | – | – | – | NCCn1cnc2c(ncn2[C@@H]2O[C@@H]3COP(=O)(S)O[C@H]4[C@@H](F)[C@H](n5cc6c7c(ncnc75)NCCC6)O[C@@H]4COP(=O)(S)O[C@@H]2[C@@H]3O)c1=O (single isomer, unassigned) [35a]
16 | – | – | 1500 nM | – | – | 9.8 °C | 14.9 °C | – | 3.5 °C | 13.1 °C | Nc1nc2c(ncn2[C@@H]2O[C@@H]3COP(=O)(S)O[C@H]4[C@@H](O)[C@H](n5cc6c7c(ncnc75)NCCC6)O[C@@H]4COP(=O)(S)O[C@@H]2[C@@H]3O)c(=O)[nH]1 (single isomer, unassigned) [4b]
17 | 11.4 °C | 16 °C | 1300 nM | 6.2 °C | 15 °C | – | – | – | – | – | O=c1[nH]cnc2c1ncn2[C@@H]1O[C@@H]2COP(=O)(S)O[C@H]3[C@@H](O)[C@H](n4cc5c6c(ncnc64)NCCC5)O[C@@H]3COP(=O)(S)O[C@@H]1[C@@H]2O (single isomer, unassigned) [25a]
18 | – | – | 900 nM | – | – | 10.6 °C | 15.8 °C | – | 4.6 °C | 13.1 °C | O=c1[nH]cnc2c1ncn2[C@@H]1O[C@@H]2COP(=O)(S)O[C@H]3[C@@H](O)[C@H](n4cc5c6c(ncnc64)NCCC5)O[C@@H]3COP(=O)(S)O[C@@H]1[C@@H]2O (single isomer, unassigned) [25b]
19 | 9.9 °C | 17 °C | 430 nM | 4.3 °C | 11.6 °C | – | – | – | – | – | NCCNc1nc(N)c2ncn([C@@H]3O[C@@H]4COP(=O)(S)O[C@H]5[C@@H](F)[C@H](n6cc7c8c(ncnc86)SCCC7)O[C@@H]5COP(=O)(S)O[C@@H]3[C@@H]4F)c2n1 (single isomer, unassigned) [51b]
